One experiment has as its system A2058. Kind of experiment: MTT survival, A2058 melanoma. The experiment is classed as cell-based, human. The conditions noted are these: A2058, 10 μM. The protocol: (§1) Next, in vitro cytotoxicity of the multiple compounds in various cell lines was evaluated, which also was performed using MTT colorimetric assay. […] Comparing breast cancer cells MCF-7 with other cancer cells, most selected compounds had higher inhibition activity to MCF-7 cells. Therefore, breast cancer cells MCF-7 were chosen to be the research target in the following experiments.

Another experiment deals with A375. Kind of experiment: MTT survival, A375 melanoma. In kind it is cell-based, human. To be noted: A375, 10 μM. The protocol:
as §1

Another experiment relates to 293T. Kind of experiment: MTT survival, 293T kidney cancer. In kind it is cell-based, human. As for the experimental part:
as §1

In the next experiment the test system is H1335. The experiment can be described thus: MTT survival, H1335 lung cancer. To be noted: H1335, 10 μM. In kind it is cell-based, human. As for the experimental part:
as §1

For the next experiment, the system named is A549. The experiment can be described thus: MTT survival, A549 lung cancer. In kind it is cell-based, human. The conditions noted are these: A549, 10 μM. As for the experimental part:
as §1

The test system of the next experiment is MCF-7. Kind of experiment: MTT survival, MCF-7 breast cancer. To be noted: MCF-7, 10 μM. In kind it is cell-based, human. As for the experimental part: as §1
A further experiment concerns Cal-27. The experiment can be described thus: MTT survival, Cal-27 oral cancer. The experiment is classed as cell-based, human. The conditions noted are these: Cal-27, 10 μM. The protocol:
as §1

Another experiment relates to Ca-922. Kind of experiment: MTT survival, Ca-922 oral cancer. In kind it is cell-based, human. The conditions noted are these: Ca-922, 10 μM. The protocol: as §1
For the next experiment, the system named is mouse melanoma cells B16. The experiment can be described thus: MTT growth inhibition on murine melanoma cells (FIG. 1). The conditions noted are these: 10 μM, 48 hours. In kind it is cell-based. The protocol:
In addition, for recognizing whether the prepared disulfides had cytotoxicity to normal cells and murine cells, human dermal fibroblasts and mouse melanoma cells B16 were selected as the models using MTT colorimetric assay. First, fibroblasts or B16 cells were seeded in 96-well culture plate at 2500 cells per well and cultivated overnight until cell attachment. Each compound (10 μM) was added into the culture media in triplicate and incubated for 48 hours, and finally MTT reagent was added into each well to detect absorbance.
Please refer to FIG. 1, which illustrates the growth inhibition of various compounds to human dermal fibroblast and B16 cells.

Experiment [1] deals with breast cancer cells MCF-7. Kind of experiment: Cell cycle analysis by flow cytometry (PI staining). The experiment is classed as cell-based, human. The conditions noted are these: MCF-7, 5 μM, 24 hours; control 11.54%. The protocol: This experiment was performed by treating breast cancer cells MCF-7 with compounds, and then cell cycle was analyzed using flow cytometry known by the skilled person in the art. Firstly, breast cancer cells MCF-7 were treated with the prepared compounds (5 μM) for 24 hours and stained with propidium iodide (PI). Approximately 10000 cells from each sample were analyzed with FACScan flow cytometer and software. […] The sub-G1 DNA Peaks for compounds 4, 5, 7, 18, 21, 23 and 24 were 20.64%, 17.92%, 26.22%, 11.95%, 19.85%, 4.35% and 33.89% respectively (data not shown), while the sub-G1 DNA peak for control (without any drug treatment) was 11.54%.
(In flow cytometry, cells or beads pass a laser one at a time.)

In experiment [2] the test system is phosphorylated p38 protein. Kind of experiment: Phosphorylated p38 expression by immunoblotting in MCF-7 cells. In kind it is cell-based, human. To be noted: MCF-7, 24-hour treatment, different concentrations. As for the experimental part:
P38 protein in p38 mitogen-activated protein kinase (MAPK) pathway was chosen to be the index of apoptosis in this experiment, and phosphorylated p38 expression was evaluated using immunoblotting assay known by the skilled person in the art. Cellular protein was harvested after the 24-hour treatment of compound 24 on MCF-7 cells, and then resolved with sodium dodecyl sulfate (SDS)-polyacrylamide gel electrophoresis and developed using immunoblotting. […] In combination with aforementioned experimental results, compound 24 and other compounds could induce cancer cell apoptosis.

The next experiment has as its system melanoma cells B16 tumor. Kind of experiment: Antitumor activity in B16 tumor-bearing mice. In kind it is in vivo. The conditions noted are these: injection into sole of feet, B16 in C57BL/6 mice. The protocol:
Firstly, a total of 5×10^6 melanoma cells B16 were inoculated into female C57BL/6 mice (about 19˜21 grams/7 to 9 weeks). […] When tumor reached about 4 mm×4 mm in diameter, mice were separated into groups. Each group had four mice in each experiment. Tumor volume were majored by calipers each two days after compound injection into each sole of feet of mice or without compound injection (control), and tumor volume was calculated by following formula: Tumor volume=[…] (Equation I)

A further experiment concerns HOP-92. The experiment can be described thus: MTT cytotoxicity, HOP-92 non-small cell lung cancer. In kind it is cell-based. To be noted: HOP-92, MTT. As for the experimental part: (§2) For confirming the cytotoxicity of bis(benzylidene-benzenamine)disulfides of the invention on various cancer cells, the well known MTT (3-(4,5-dimethylthiazol-2-yl)-2,5-diphenyltetrazolium bromide) colorimetric assay in this art was performed, and the method was not detailedly described herein. Please refer to Table 3, compound 12 was selected from compounds 1 to 24 to proceed cytotoxicity experiment.

A further experiment concerns NCI-H226. The experiment can be described thus: MTT cytotoxicity, NCI-H226 non-small cell lung cancer. The experiment is classed as cell-based. As for the experimental part:
as §2

In another experiment the test system is HCT-15. The experiment can be described thus: MTT cytotoxicity, HCT-15 colon cancer. In kind it is cell-based. The conditions noted are these: HCT-15, MTT. As for the experimental part:
as §2

The subject of the next experiment is SNB-75. The experiment can be described thus: MTT cytotoxicity, SNB-75 central nervous system cancer. To be noted: SNB-75, MTT. The experiment is classed as cell-based. The protocol: as §2
The next experiment relates to LOX MVI. The experiment can be described thus: MTT cytotoxicity, LOX MVI melanoma. The experiment is classed as cell-based. The protocol:
as §2

The next experiment relates to MALME-3M. The experiment can be described thus: MTT cytotoxicity, MALME-3M melanoma. The experiment is classed as cell-based. The protocol: as §2
A further experiment has as its system SK-MEL-5. The experiment can be described thus: MTT cytotoxicity, SK-MEL-5 melanoma. The experiment is classed as cell-based. The conditions noted are these: SK-MEL-5, MTT. As for the experimental part: as §2
The next experiment relates to IGROV1. The experiment can be described thus: MTT cytotoxicity, IGROV1 ovarian cancer. The experiment is classed as cell-based. The protocol: as §2
For a further experiment, the system named is T-47D. Kind of experiment: MTT cytotoxicity, T-47D breast cancer. In kind it is cell-based. The protocol: as §2
For experiment [3], the system named is selected cancer cell lines. The experiment can be described thus: MTT cytotoxicity, mean over cancer cell lines. In kind it is cell-based. The conditions noted are these: read-out: mean 50% growth inhibition (GI50). The protocol: as §2

A word on the GI50: it is the concentration at which growth is held to half of that of the control.

Regarding `Cc1c(N=C(SSC(=Nc2cccc([N+](=O)[O-])c2C)c2ccc(C(F)(F)F)cc2)c2ccc(C(F)(F)F)cc2)cccc1[N+](=O)[O-]` [Compound 24], the “Survival (% control) of compound (10 μM)” value is 34.9 ± 0.42 % control in the experiment on A2058; 59.5 ± 0.22 % control in the experiment on A375; 24.2 ± 0.59 % control with 293T; 26.0 ± 0.32 % control in the experiment with H1335; 53.4 ± 0.15 % control in the experiment on A549; 8.6 ± 0.64 % control in the experiment with MCF-7. The “Survival (% control) of compound (10 μM)” value in the experiment with Cal-27 is given as 73.5 ± 0.22 % control; in the experiment with Ca-922 it was 45.5 ± 0.22 % control. In addition, the “growth inhibition / apoptosis in murine melanoma B16” value in the experiment on mouse melanoma cells B16 is given as “significantly made”. The “sub-G1 DNA peak” value in experiment [1] is on record as 33.89%. In experiment [2], the “phosphorylation of p38 protein” value is “dependent on the concentration”. Also, in the experiment on melanoma cells B16 tumor (2 mg/kg), the “tumor volume over time” value is “not markedly increased”. In the experiment on melanoma cells B16 tumor (4 mg/kg), the “tumor volume compared to the untreated group” value was “significantly suppressed”.
As for `Cc1cc([N+](=O)[O-])ccc1N=C(SSC(=Nc1ccc([N+](=O)[O-])cc1C)c1ccc(C(F)(F)F)cc1)c1ccc(C(F)(F)F)cc1` [Compound 12], the GI50 in the experiment on HOP-92 is 175 nM; in the experiment with NCI-H226, 427 nM; in the experiment on HCT-15 it was 388 nM; with SNB-75 it was 141 nM; in the experiment on LOX MVI, 304 nM; in the experiment with MALME-3M it was 252 nM. Moreover, the 50% growth inhibitory concentration (GI50) was 262 nM in the experiment on SK-MEL-5, 217 nM in the experiment on IGROV1, 221 nM in the experiment on T-47D and 372 nM in experiment [3].

The values are drawn from patent US8680155B2, “Synthesis and antitumor activity of novel bis(benzylidene-benzenamine)disulfides” (Kaohsiung Medical University, priority 2011, dated 2014).
